Earlier results as cited in patent US11975015B2, “Methods for treating degenerative disc disease and chronic lower back pain” (ECM Biologics, Inc., priority 2017, dated 2024).

Test system: chronic low back pain (CLBP)
Conditions: amoxicillin 500 mg-clavulanic acid 125 mg three times a day for 100 days; Albert 2013, Palazzo 2017

amoxicillin-clavulanic acid
treatment outcome in CLBP patients: mixed results
